Assay results reported in patent publication US8993543B2, “Diphenyl sulfide derivative and pharmaceutical product which contains same as active ingredient” (Kyorin Pharmaceutical Co., Ltd., priority 2010, dated 2015).

Columns and labels:
[1] = target: T1, Human S1P3 receptor (Homo sapiens, UniProt Q99500); assay: Suppression of S1P-induced cellular calcium mobilization in human S1P3 receptor-expression CHO cells (Schild plot, Kd); format: cell-based; settings: Fluo3 calcium mobilization by S1P, Schild plot analysis, read-out: S1P3 dissociation constant Kd
T1 construct: expressed in transfected cells; host or cells: CHO cells (Geneticin selection)
T1 sequence (Q99500 whole entry): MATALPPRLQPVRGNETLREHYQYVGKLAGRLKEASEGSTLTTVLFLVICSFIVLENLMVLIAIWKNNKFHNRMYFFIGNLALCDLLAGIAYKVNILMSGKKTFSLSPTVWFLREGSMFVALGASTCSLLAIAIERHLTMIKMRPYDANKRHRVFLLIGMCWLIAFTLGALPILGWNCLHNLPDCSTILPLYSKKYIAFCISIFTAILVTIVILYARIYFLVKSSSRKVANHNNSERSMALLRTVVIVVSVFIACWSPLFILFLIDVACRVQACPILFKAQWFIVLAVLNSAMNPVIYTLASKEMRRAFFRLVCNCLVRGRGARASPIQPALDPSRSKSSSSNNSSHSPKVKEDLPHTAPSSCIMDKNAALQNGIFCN
Method: Suppression Effect of Test Compound Against Cellular Calcium Mobilization of Human S1P3 Receptor-Expression Cell by S1P (Sphingosine 1-Phosphoric Acid)
Human S1P3 receptor-expression CHO cells were subcultured in a Ham's F-12 culture medium containing 10% fetal bovine serum, and 300 μg/mL of Geneticin The human S1P3 receptor-expression CHO cells were subjected to 0.25% trypsinization, then recovered from the dish, and floated in a Ham's F-12 culture medium containing 10% fetal bovine serum, and 300 μg/mL of Geneticin. Then, the human S1P3 receptor-expression CHO cells were seeded into a 96-well black clear bottom plate (BD Falcon Biocoat) at 2.5×10^4/100 μL/well. The human S1P3 receptor-expression CHO cells were then cultivated for […] at 37° C. under 5% CO2 environment. The next day, the wells were washed with a Ham's F-12 culture medium containing 100 μL of 0.1% fatty acid-free bovine serum albumin (BSA). This washing treatment was carried out 3 times. The culture medium was exchanged with a Ham's F-12 culture medium containing 0.1% BSA, and then starved of serum for 6 hours in a CO2 incubator set at 37° C.
The culture medium was thrown away after the 6 hours. Then, 50 μL/well of a Fluo3 loading buffer was added, and the cultures were cultivated for further 1 hour. The Fluo3 loading buffer was prepared as follows. First, equal amounts of Fluo3-AM (Dojindo) and pluronic F-127 (20% DMSO solution, invitrogen) weremixed. Then, the mixture of Fluo3-AM andpluronic F-127 was added into a Hanks-HEPES buffer (Hanks balanced salt solution containing 20 mM HEPES (pH 7.4), 0.1% BSA (fatty acid-free), and 2.5 mM probenecid) to form a Fluo3 loading buffer having a final Fluo3-AM concentration of 4 μM.
After incubating for 1 hour, the wells were washed 3 times with 100 μL of the Hanks-HEPES buffer. 100 μL of the same buffer in which a test compound (0.125 nM, 1.25 nM, 12.5 nM, 125 nM, 1.25 μM) or DMSO had been dissolved were added to the each well, and then incubated for 30 minutes at 37° C. in a microplate spectrophotofluorometer (FLEX Station (Molecular Device Co., Ltd.)). Then, 25 μL of S1P prepared at 5 times the concentration of the final concentration based on serial dilution (final concentration of 0.1 nM, 1 nM, 10 nM, 100 nM, and 1 μM) was added, and the fluorescence based on the Fluo3 due to calcium mobilization was detected and measured at an excitation wavelength of 485 nm and a detection wavelength of 525 nm using an same apparatus. Based on the measurement data, the increase in fluorescence was calculated by subtracting the minimum fluorescence intensity from the maximum fluorescence intensity. The calculated increase in fluorescence was used to perform a curve approximation of the relationship between the S1P concentration and the increase in fluorescence using PRISM 4 software (GraphPad). Based on the results, the EC50 value of the compound-untreated and the EC50 value of the compound-treated at each concentration was calculated. Based on these values, Schild plot analysis was carried out in order to determine the dissociation constant Kd. In Table 1, 1 nmol/L>Kd value≧0.1 nmol/L is indicated as “+”, 0.1 nmol/L>Kd value≧0.01 nmol/L is indicated as “++”, and 0.01 nmol/L>Kd value is indicated as “+++”.

[2] = target: T2, S1P1 receptor (Homo sapiens, UniProt P21453); assay: Intracellular calcium mobilization derivative test (agonist action) in human S1P1 receptor-expression CHO cells; format: cell-based; set-up: expressed in transfected cells; host or cells: CHO cells (Geneticin selection); settings: agonist mode, up to 10 μM
T2 sequence (P21453 whole entry): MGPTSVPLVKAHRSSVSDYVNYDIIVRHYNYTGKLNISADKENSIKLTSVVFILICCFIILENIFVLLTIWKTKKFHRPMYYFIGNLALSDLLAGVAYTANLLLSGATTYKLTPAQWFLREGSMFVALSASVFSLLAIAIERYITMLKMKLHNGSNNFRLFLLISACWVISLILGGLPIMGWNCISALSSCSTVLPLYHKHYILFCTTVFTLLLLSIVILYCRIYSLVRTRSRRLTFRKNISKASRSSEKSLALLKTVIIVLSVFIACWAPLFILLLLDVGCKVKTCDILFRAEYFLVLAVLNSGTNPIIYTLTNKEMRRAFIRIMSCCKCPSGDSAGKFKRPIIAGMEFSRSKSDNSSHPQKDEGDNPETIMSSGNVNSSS
Method: Intracellular Calcium Mobilization Derivative Test of Test Compound Against Human S1P1 Receptor-Expression Cell
Human S1P1 receptor-expression CHO cells were subcultured in a Ham's F-12 culture medium containing 10% fetal bovine serum, and 300 μg/mL of Geneticin. The human S1P1 receptor-expression CHO cells were subjected to 0.25% trypsinization, then recovered from the dish, and floated in a Ham's F-12 culture medium containing 10% fetal bovine serum, and 300 μg/mL of Geneticin. Then, the human S1P1 receptor-expression CHO cells were seeded into a 96-well black clear bottom plate (BD Falcon Biocoat) at 2.5×10^4/100 μL/well. […]
After incubating for 1 hour, the wells were washed 3 times with 100 μL of the Hanks-HEPES buffer. […] Then, 25 μL of the same buffer dissolved with DMSO, or S1P prepared at 5 times the concentration of the final concentration based on serial dilution or the test compound (final concentration of 0.1 nM, 1 nM, 10 nM, 100 nM, 1 μM, and 10 μM) was added, and the fluorescence based on the Fluo3 due to calcium mobilization was detected and measured at an excitation wavelength of 485 nm and a detection wavelength of 525 nm using the same apparatus. Based on the measurement data, the increase in fluorescence was calculated by subtracting the minimum fluorescence intensity from the maximum fluorescence intensity. […]

[3] = target: T2, S1P1 receptor; assay: Antagonistic action on the S1P1 receptor by the method of Experiment Example 1 (Kd); format: cell-based; set-up: expressed in transfected cells
[4] = tested on: Cecal ligation and puncture (CLP) sepsis; assay: Cecal ligation and puncture sepsis model, survival; format: in vivo, Wistar rats; settings: CLP rats
Method: Cecal Ligation and Puncture Sepsis Model
This model is widely used as a model for polymicrobial abdominal sepsis caused by leakage of intestinal bacteria. The experiment was carried out with reference to the method described in Non-Patent Literature 9 (D. Rittirsch et al., Nature Protocols, 4, 31 (2009)).
Preparation of Cecalligation and Puncture (CLP) Sepsis Mice
Wistar rats (Charles River Laboratories, Japan Inc., male 8 W) were used. The abdominal portion of the rats was cut open under isoflurane anesthesia, and the appendix was exteriorized. The appendix was ligated with sterilized silk thread, and 10 holes were opened in the tip portion of the appendix using an 18 G syringe needle. After the treatment, the appendix was returned to the body, and the wound was sutured. Further, physiological saline was subcutaneously administered at a dose of 30 mL/kg. The rats were then returned to their cages, and observed for 7 days to determine the survival rate.
Test Compound Administration Method
The test compound was continuously administered via a cannula stuck in the femoral vein at a dose of 0.1 mg/kg/hr. Administration of the test compound was started 1 hour after the CLP procedure was finished.

Row | Kd [1] | Structure (SMILES) | EC50 [2] | Kd [3] | survival lengthening action, Log-rank test p ([4]; 0.1 mg/kg/hr continuous via femoral vein from 1 hour after CLP, vs medium administration group) | survival rate, test subjects alive after 3 days ([4]; 0.1 mg/kg/hr continuous via femoral vein, after 3 days) | survival rate, test subjects alive after 7 days ([4]; 0.1 mg/kg/hr continuous via femoral vein, after 7 days)
1 | < 0.01 nM | C=CC[C@](N)(CCc1ccc(Sc2cc(OCC)ccc2O)cc1Cl)COP(=O)(O)O [Example 1, (R)-2-allyl-2-amino-4-{2-chloro-4-(5-ethoxy-2-hydroxyphenylthio)phenyl}butylphosphoric acid monoester] | > 10000 nM | 2.66 nM | – | – | –
2 | 0.1 to 1 nM | N[C@@](CCCO)(CCc1ccc(Sc2cc(C3CC3)ccc2O)cc1Cl)COP(=O)(O)O [compound 19] | – | – | – | – | –
3 | 0.1 to 1 nM | C=CC[C@](N)(CCc1ccc(Sc2cc(C#N)ccc2O)cc1Cl)COP(=O)(O)O [compound 28, (R)-2-allyl-2-amino-4-{2-chloro-4-(5-cyano-2-hydroxyphenylthio)phenyl}butylphosphoric acid monoester] | – | – | – | – | –
4 | 0.1 to 1 nM | CCC[C@](N)(CCc1ccc(Sc2cc(C#N)ccc2O)cc1Cl)COP(=O)(O)O [compound 35, (S)-2-amino-4-[2-chloro-4-(5-cyano-2-hydroxyphenylthio)Phenyl]-2-propylbutylphosphoric acid monoester] | – | – | – | – | –
5 | 0.1 to 1 nM | CCC[C@](N)(CCc1ccc(Sc2cc(C(C)=O)ccc2O)cc1Cl)COP(=O)(O)O [compound 36, (S)-4-[4-(5-acetyl-2-hydroxyphenylthio)-2-chlorophenyl]-2-amin o-2-propylbutylphosphoric acid monoester] | – | – | – | – | –

Row | Structure (SMILES) | Kd [1] | EC50 [2] | Kd [3] | survival lengthening action, Log-rank test p ([4]; 0.1 mg/kg/hr continuous via femoral vein from 1 hour after CLP, vs medium administration group) | survival rate, test subjects alive after 3 days ([4]; 0.1 mg/kg/hr continuous via femoral vein, after 3 days) | survival rate, test subjects alive after 7 days ([4]; 0.1 mg/kg/hr continuous via femoral vein, after 7 days)
6 | CCC[C@](N)(CCc1ccc(Sc2cc(OCC)ccc2O)cc1Cl)COP(=O)(O)O [Example 2, (S)-2-amino-4-{2-chloro-4-(5-ethoxy-2-hydroxyphenylthio)phenyl}-2-propylbutylphosphoric acid monoester] | < 0.01 nM | > 10000 nM | 1.6 nM | < 0.01 | 25% | 12.5%
